Usually melting point stands for the temperature of the solid-liquid transition. Regarding `CCOC(=O)c1cn2c3c(cc(I)cc3c1=O)N(C)C(=O)C2`, the melting point lay within 278 to 283 °C.

In turn, `CCOC(=O)C1=Cc2cc(C(C)=O)ccc2OC1C(F)(F)F` (centres undefined) returned a melting point of 101 to 103 °C.

The compound `CC(C)Oc1ccc(CCCO)c(Oc2ncc(C(F)(F)F)cc2Cl)c1` yielded a melting point of 72 to 73 °C.

Turning to `NS(=O)(=O)C1=CCC(n2nc(C(F)(F)F)c3ccc4ccccc4c32)C=C1` (centres undefined), the melting point lay in the range of 257 to 258 °C.

Turning to `NS(=O)(=O)c1cccc(-c2noc(-c3cnn4c(C(F)(F)F)cc(-c5ccc(C(F)(F)F)c(OCC(F)(F)F)c5)nc34)n2)c1`, the melting point came out at 250 °C.

In turn, `O=[N+]([O-])c1c(Cl)cc(-c2n[nH]cc2Cl)cc1Cl` showed a melting point of 177 °C.

Compound `CCOC(=O)CCc1ccc(OCCCc2cn(-c3ccc(C(F)(F)F)cn3)nc2OCC)c(O)c1` displayed a melting point of 92 to 93 °C.

As to `Cc1cccc(NC(=N)N(C)C)c1-c1ccccc1`, the melting point is 181 to 182 °C.

With `N#Cc1cc(N)ccc1N1CCC(N2CCC(O)CC2)CC1`, the melting point was 175 °C.

Regarding `O=c1oc(-c2ccccc2)cc(O)c1Sc1ccccc1Cl`, the melting point is 275 to 280 °C.

In the case of `Cc1ncc2c(c1O)COC2(C)C`, the melting point worked out at 247 °C.

`COc1ccc(CNc2cc3c(Nc4ccc(Cl)c(Br)c4)ncnc3cn2)cc1` gave a melting point of 207 to 210 °C.

In turn, `CCC(Oc1ccccc1F)C(=O)OC1CC(O)C=C2C=CC(C)C(CCC3CC(O)CC(=O)O3)C21` (mixture of isomers) returned a melting point of 136 to 138 °C.

`O=C(Nc1cnc(OCCO)c(NC(=O)OCCCl)c1)OCCCl` registered a melting point of 176 to 178 °C.

Regarding `CC1(c2ccccc2)C(=O)Nc2cc(Cl)c(Cl)cc2C1=O` (centres undefined), the melting point lay within 213 to 214 °C.

The compound `CC1=C(C)C(C)(OC(N)=O)N(c2ccc(Cl)c(Cl)c2)C1=O` (centres undefined) registered a melting point of 141 to 142 °C.

Take `O=C(O)COc1ccc(SCc2cc(-c3ccc(Cl)cc3)no2)c2c1CCC2`: the melting point is 92 to 94 °C.

For the compound `CCOC(OCC)C1Cc2c(Br)ccc(OC)c2C1=O` (centres undefined), the melting point is 76 to 78 °C.

In turn, `COc1ccc(CCc2nc(Br)c(C(F)(F)F)[nH]2)cc1` came in with a melting point of 104 to 106 °C.

`c1ccc(N2CCN(CCc3nc4ccccc4[nH]3)CC2)cc1` had a melting point of 201 to 203 °C.

Turning to `O=C(NCCN1CCOCC1)c1ccc(Cl)cc1`, the melting point is 120 to 121 °C.

With `CN1CCC(c2c(O)cc(O)c3c(=O)cc(-c4ccccc4Cl)oc23)C1CN` (centres undefined), the melting point lay in the range of 218 to 219 °C.

As for `CCn1cnc2c(Nc3cccc([N+](=O)[O-])c3)nc(N[C@H]3CC[C@H](O)CC3)nc21`, the melting point was 237 to 238 °C.

With `Cc1nc2ccccn2c(=O)c1CCN1CCC(c2coc3cc(F)ccc23)CC1`, the melting point is 160 °C.

In the case of `OCc1ccc(OCc2csc(-c3ccccc3)n2)nc1`, the melting point fell in the range of 134 to 135 °C.

The compound `COc1ccc(NC(=O)c2ccc(OC)c(N)c2)cc1` showed a melting point of 164 to 167 °C.

For the compound `Brc1cccc(Nc2ncnc3cc4c(cc23)OC(CN2CCOCC2)CO4)c1` (centres undefined), the melting point lay within 229 to 230 °C.

Take `CC(C)(C)OC(=O)N1CCN(c2cccc(Cl)c2C=O)CC1`: the melting point fell in the range of 100 to 103 °C.

Turning to `CCOC(=O)COc1ccc(C2=NNC(=O)CC2)cc1`, the melting point fell in the range of 127 to 129 °C.

`CSc1ccc2c(c1)NC(=O)C2` registered a melting point of 179 to 180 °C.

`COc1c(Cl)c(-c2ccc(C(C)C)cc2)cc2oc(=O)c(C)c(C)c12` yielded a melting point of 168 °C.

For the compound `Nc1ccc(Sc2ccccc2)cc1Cl`, the melting point was 59 to 60 °C.

As to `COC1(C(=O)Cc2ccc(-c3ccc(O)cc3)cc2)C=CC(Cl)=CC1N` (centres undefined), the melting point lay within 165 to 168 °C.

As for `O=c1ncc(Cl)cn1COCc1cccc(C(F)(F)F)c1`, the melting point stood at 95 °C.

In the case of `O=C(O)c1ccc(-c2cccc(C(=O)O)c2)cc1`, the melting point was > 250 °C.

As to `Cc1ccc(S(=O)(=O)N2CCC[C@H]2C(=O)N2c3ccc(F)c(Cl)c3C(=O)CC2C)cc1` (some centres undefined), the melting point is 135 to 136 °C.

Regarding `CN1CCc2c(Cl)c(O)c(O)c(Sc3ccccc3)c2CC1`, the melting point was 173 to 174 °C.

`C=CCc1cc2c(c(CC=C)c1O)N(CC=C(C)C)C(=O)CC2`: the melting point lay in the range of 94 to 96 °C.

`Cc1c2c(nc3ccccc13)CCN(C(=O)C(F)(F)F)CC2` displayed a melting point of 147 °C.

`Cc1ccc(Oc2ccc(C)cc2CC(=O)O)cc1` registered a melting point of 101 to 104 °C.

`COc1cc2cc(C3CCCC3)sc2c(Cl)c1Cl` showed a melting point of 59.5 to 60 °C.

As for `CC(=O)OC1CCC2(C)C(CCC3C4CC5OC6(CC(C)C(C)(C)O6)C(C)(O)C5C4(C)CC(O)C32)C1` (centres undefined), the melting point lay within 194 to 195 °C.

For the compound `CCN1CCC(=O)N(c2c(C)cccc2C)C1=S`, the melting point fell in the range of 124 to 126 °C.

Take `COc1cccc(F)c1COC1(C(F)(F)F)CN(C)C(=O)Nc2ccc(Cl)cc21` (centres undefined): the melting point is 172 to 174 °C.

`CNC(=O)n1nc(Oc2c(Cl)cc(C(F)(F)F)cc2[N+](=O)[O-])cc1C` showed a melting point of 140 to 142 °C.

In turn, `NC(=O)c1cc([N+](=O)[O-])c(Oc2ccccc2)c(S(N)(=O)=O)c1` gave a melting point of 255 to 256 °C.

In the case of `CCCCCCCCCC[C@H](O)c1ccc2ccccc2c1`, the melting point was in the range of 53 to 54 °C.

`CCCCN(CCCC)CCCOc1ccc(-c2cn3cccc(C)c3n2)c(C)c1` came in with a melting point of 78 to 81 °C.

On to `COC(=O)CCc1ccc(Oc2ccc(-c3ccc(C#N)cc3)nn2)cc1`, for which the melting point was in the range of 164 to 167 °C.

Consider `CC1(C)OC[C@H]([C@@H]2CNC(=O)C2)O1`, for which the melting point fell in the range of 84 to 86 °C.

On to `COC(=O)CCON1C(C)(C)CC(OC(=O)c2ccccc2C(=O)OC2CC(C)(C)N(OCCC(=O)OC)C(C)(C)C2)CC1(C)C`, for which the melting point was 117 to 118 °C.

In the case of `CC(C)C(C(=O)O)c1ccc(Cl)cc1` (centres undefined), the melting point lay in the range of 88 to 89 °C.

Take `O=c1[nH]c2sccc2c(=O)o1`: the melting point stood at 233 °C.

`CC1CN(c2c(F)cc3c(=O)c(C(=O)O)cn(C4CC4)c3c2F)CC1NC(=O)OC(C)(C)C` (centres undefined) had a melting point of 230 to 231 °C.

Consider `CCC(O)(CC(N)=O)c1ccc(Br)cc1` (centres undefined), for which the melting point was in the range of 118 to 119 °C.

`Ic1cccc(-c2nnc(-c3ccc4ccccc4c3)o2)c1` displayed a melting point of 156 to 158 °C.

In the case of `O=c1[nH]c2sc3ccc(I)cc3c2[nH]c1=O`, the melting point is > 300 °C.

Compound `CCc1nc(OC)c(NC(=O)N2CCN(c3cccc(O)c3)CC2)cc1C` gave a melting point of 168 to 170 °C.

The compound `N=C(N)c1sccc1-c1ccc(CN2CCSC2)cc1` displayed a melting point of 162 to 164 °C.

`COc1ccc(N2CCN(C)CC2)c2c1CC[C@H](NC(=O)c1ccc(N3CCOCC3)cc1)C2` came in with a melting point of 229 to 232 °C.

`Cc1nc(C)c(C(C)(O)c2ccoc2)s1` (centres undefined) gave a melting point of 104 to 105 °C.

In turn, `CSC(C(=O)O)c1cc(=O)oc2cc(O)c(O)cc12` (centres undefined) yielded a melting point of 254 to 256 °C.

As for `COc1ccc(C(=O)[NH+]([O-])c2c(Cl)cncc2Cl)c2c1oc1ccc(C(F)(F)F)cc12` (centres undefined), the melting point amounted to 272 °C.

For `CC(C)c1ccc(C(=O)C(c2ccccc2)C2CCCC2)c(C(C)C)c1OS(N)(=O)=O` (centres undefined), the melting point lay in the range of 142 to 143 °C.

`CCCCCCOc1ccc(CCC(=O)OC2CCC3C4CCC5=CC(=O)CCC5C4CCC23C)cc1` (centres undefined) came in with a melting point of 52 to 53 °C.

On to `OC(c1ccccc1)c1nnnn1Cc1ccccc1` (centres undefined), for which the melting point came out at 81 °C.

Turning to `CCOC(=O)c1ccc2cnccc2n1`, the melting point was 106 to 108 °C.

As to `CCOc1ccc(C2(O)CCN(CC(O)c3ccc(O)c(C)c3)CC2)cn1` (centres undefined), the melting point was found to be 189 °C.

The compound `Cn1nnnc1SCC1c2cc(O)c(O)cc2CCN1C(=O)OCC(Cl)(Cl)Cl` (centres undefined) gave a melting point of 201 to 207 °C.

For the compound `COC(=O)c1cc(N)nc(-c2ccc(Cl)c(OC)c2F)n1`, the melting point was in the range of 188 to 190 °C.

The compound `CN(C)[C@H]1CC[C@@H](n2cc(-c3ccc(Oc4ccccc4)cc3)c3c(N)ncnc32)CC1` displayed a melting point of 180 to 182 °C.

On to `CCN(CC)c1ccc(C2(c3ccc(N(C)C)cc3)OC(=O)c3c(Cl)c(Cl)c(Cl)c(Cl)c32)c(N(CC)CC)c1` (centres undefined), for which the melting point was in the range of 174 to 176 °C.

In turn, `COCc1c(C(=O)OC(C)C)ncc2c1c1c(OCc3ccccc3)cccc1n2CC(=O)N(C)CCc1ccccc1` displayed a melting point of 146 to 147 °C.

In the case of `CC1(C)CC(c2ccc(Cl)cc2)=C(c2ccc(S(N)(=O)=O)cc2)C1`, the melting point is 144 to 145 °C.

Take `CCOC1CCC(=O)N1S(=O)(=O)c1ccccc1` (centres undefined): the melting point lay within 112 to 113 °C.

As for `Nc1ncc2ncn(OC(CO)CCO)c2n1` (centres undefined), the melting point was 178 to 179 °C.

For `O=c1[nH]c2cc(Cl)ccc2c(O)c1-c1ccc(Br)cc1`, the melting point is > 350 °C.

In the case of `CN1C(=O)C(C)(C)C(=O)N(C)c2cc(Br)ccc21`, the melting point lay within 194 to 195 °C.

`C=C(C)Cn1c(=O)n(C)c(=O)c2c(SCCCO)n(Cc3cccc4ccccc34)nc21` showed a melting point of 138 to 139 °C.

Regarding `COc1ccc(N2CCN(c3c(C)c(C)c4c(c3C)CC(C)(Cn3ccnc3C)O4)CC2)cc1` (centres undefined), the melting point was in the range of 86 to 90 °C.

Turning to `CCOC(=O)C(Cc1ccc(OCCN2CCC(C)(C)c3cc(C(=NOC)c4ccccc4)ccc32)cc1)Nc1ccccc1C(=O)c1ccccc1` (centres undefined), the melting point lay within 78 to 80 °C.

`CC(=O)Nc1ccc(C(=O)O)c([N+](=O)[O-])c1` had a melting point of 217 to 220 °C.

`CC1CCN(C(=O)c2nc(-c3ccccc3)nc3ccccc23)CC1` displayed a melting point of 138 °C.

In turn, `Cc1nc(N2CCN(Cc3ccccc3C(=O)O)C2=O)sc1C(=O)NCc1ccccc1` gave a melting point of 153 to 156 °C.

Compound `COC(=O)c1cccc(Sc2ccccc2)c1S(C)(=O)=O` registered a melting point of 151 °C.

In the case of `O=C1CCC(c2c[nH]c3ccc(F)cc23)CC1`, the melting point was in the range of 112 to 114 °C.

In turn, `O=C(Nc1ccc2ccccc2c1-c1c(P(=O)(c2ccccc2)c2ccccc2)ccc2ccccc12)c1ccccc1` had a melting point of 247 °C.

Regarding `N#CC(C#N)=C(NCCN1CCCCC1)N1CCC(CN2CCCCC2)CC1`, the melting point lay in the range of 78 to 80 °C.

With `CC1(C)CNc2nc(-c3ccncc3)cc(=O)n2C1`, the melting point was 152 to 154 °C.

The values are drawn from a melting point compilation (Tetko et al.; mined from patent text by program, amines drawn as free bases though some values may be those of a salt).
